Source: patent US11628179B2, “Compounds for treating and preventing extracellular histone mediated pathologies” (priority 2017, dated 2023)
“And” between values parts separate entries of the source, which are not always exact repeats. Identical values can stand only once. Counter-ions that a name gives are not always drawn. Like-named read-outs stand apart in the source and are kept apart here.

Tests used:
[1] = HPLC analysis of mCBS in buffer formulations after 28 days; type: physicochemical; conditions: phosphate or citrate buffer, 25±2° C./60% RH and 40±2° C./75% RH
[2] = Pharmacokinetics, intravenous bolus 20 mg/kg; type: in vivo, rat
Experimental: A total of ten blood samples were collected from three rats at time points ranging from pre-dose to 48 hours post-dose. The resulting blood samples were processed to plasma and subsequently analysed for the concentration of mCBS (free-base) using an LC-MS/MS based method. The plasma concentration versus time data were used for calculation of pharmacokinetic parameters.

[3] = Pharmacokinetics, intravenous bolus 100 mg/kg (plasma and urine); type: in vivo, rat
Experimental: A total of nine blood samples were collected from each rat at time points ranging from pre-dose to 192 hours post-dose. Urine samples were also collected over the first 48 hours. The resulting blood samples were processed to plasma. The urine and plasma samples were subsequently analysed for the concentration of mCBS (free-base) using LC-MS/MS based methods.

[4] = Non-specific binding to ultrafiltration device (phosphate buffer); type: in vitro ADME; conditions: for Concentration of mCBS, 200 ng/mL Post-filter / Concentration of mCBS, 200 ng/mL Pre-filter / Concentration of mCBS, 2000 ng/mL Post-filter / Concentration of mCBS, 2000 ng/mL Pre-filter: Phosphate Buffer pH 7.4, replicates and Mean
Experimental: Protein binding was assessed by an ultrafiltration method using Centrifree® Ultrafiltration Devices with a 30000 dalton molecular weight cut-off point. Briefly, known concentrations of mCBS (as free base) were added to human, rat and dog plasma samples and incubated for 20 min at 37° C. The samples were then subject to ultrafiltration to separate protein bound and unbound drug.
mCBS stock solutions (10 μL) were spiked into solutions of each test matrix (490 μL) as listed below in Table 9 to have a final concentration of 200 ng/mL & 2000 ng/m L.
Spiked samples were then incubated at 37° C. for 20 minutes in a water bath. Aliquots of the samples from each test group (500 μL) were transferred to the ultrafiltration devices (n=3) and centrifuged for 20 minutes at 1000 g. After centrifugation, aliquots of the ultrafiltrates (50 μL) were transferred to separate test tubes for extraction, alongside duplicate aliquots of the samples prior to ultrafiltration from each test group.
For quantification of samples before ultrafiltration, samples were analysed against a freshly prepared standard curve in plasma.

[5] = tested on: Sprague-Dawley rats
Experimental: The objective of these studies was to determine the toxicity of the test item, mCBS, when administered by continuous (24 hours/day) intravenous infusion through a surgically implanted catheter for 7 consecutive days to Sprague-Dawley rats.
The test and control item dose formulations of mCBS (in the form of the heptasodium salt mCBS.Na) were administered to groups of rats by continuous (24 hours/day) intravenous infusion for 7 consecutive days as described in the Table 14 below.
Parameters monitored during this study included mortality, clinical observations, body weights and food consumption. In addition, hematology, coagulation and clinical chemistry parameters were evaluated on Day 9. Blood samples were collected from the animals at timepoints relative to the start of the infusion for analysis of test item concentration in plasma. At termination (Day 9), all animals were euthanized and subjected to a gross necropsy examination. Organ weights were measured on selected organs and a selected list of tissues, including gross lesions, were retained and prepared for microscopic evaluation.

[6] = tested on: Beagle dogs
Experimental: This study was also conducted inter alia to determine the maximum tolerated dose (MTD) of the test item, mCBS, when administered by continuous (24 hours/day) intravenous infusion through a surgically-implanted catheter for 48 hours per dose level for up to 4 dose levels to Beagle dogs.
mCBS dose formulations were administered to Beagle dogs by continuous (24 hours/day) intravenous infusion for 48 hours per dose level for up to 4 dose levels, as described in the Table 15 below.
Parameters monitored during this phase of the study included mortality, clinical observations, body weights, and food consumption. Serial blood samples were collected from each animal to confirm mCBS plasma levels at the following time points: 24 and 48 hours post start of infusion of each dose level. Blood samples were also collected from each animal for clinical pathology evaluations (hematology, coagulation, and clinical chemistry) on Day 1, prior to administration of the new dose level on Days 3, 5, and 7, and on Day 9.

[7] = tested on: human RBCs; test: Histone-induced RBC aggregation (flow cytometry autofluorescence, SEM); type: cell-based
[8] = IV bolus 20 mg/kg as sodium salt
[9] = IV bolus 100 mg/kg as sodium salt
[10] = animals treated with 1394 mg/kg/day (free base)

## CO[C@@H]1O[C@H](COS(=O)(=O)O)[C@@H](O[C@@H]2O[C@H](COS(=O)(=O)O)[C@@H](OS(=O)(=O)O)[C@H](OS(=O)(=O)O)[C@H]2OS(=O)(=O)O)[C@H](OS(=O)(=O)O)[C@H]1OS(=O)(=O)O [mCBS, β-O-methyl cellobioside sulfate]
[1]
  variation from nominal after 28 days: ~2 % of nominal
[2]; [8]
  AUCinf, mean (±SEM): 35000 (±2940) ng·h/mL
  AUClast, mean (±SEM): 34300 (±2460) ng·h/mL
  apparent elimination half-life (T½), mean (±SEM): 77.5 (±54.5) h
  mean residence time (MRT), mean (±SEM): 5.58 (±3.99) h
  total body clearance (Cl), mean (±SEM): 0.472 (±0.0377) L/h/kg
  volume of distribution (Vz), mean (±SEM): 46.9 (±30.7) L/kg
[2]; IV bolus 20 mg/kg as sodium salt (16.3 mg/kg free base), plasma, n=3
  concentration at time zero (C0), mean (±SEM): 73400 (±8560) ng/mL
[2]; IV bolus 20 mg/kg, first 4 hours
  administered dose removed from the central compartment: over 90%
[3]; 0-4 h post-dosing
  percent of total dose excreted in urine, mean (±SEM): 52.0 (±5.0) %
[3]; 0-24 h post-dosing
  percent of total dose excreted in urine, mean (±SEM): 65.0 (±7.0) %
[3]; 0-48 h post-dosing
  percent of total dose excreted in urine, mean (±SEM): 69.2 (±10.8) %
[3]; [9]
  AUCinf: 135,000 ng·h/mL
  AUClast: 135,000 ng·h/mL
  distribution half-life: 0.65 h
  mean residence time (MRT): 1.43 h
  terminal total body clearance (Cl): 10.1 mL/min/kg
  volume of distribution (Vz): 49.0 L/kg
[3]; IV bolus 100 mg/kg as sodium salt (81.5 mg/kg free base), pooled mean plasma data, 6 rats
  concentration at time zero (C0): 308,000 ng/mL
[3]; IV bolus 100 mg/kg as sodium salt, 100 mg/kg
  apparent terminal elimination half-life (T½): 56.1 h and ~56 h
[4]; 200 ng/mL
  Non-specific binding (NSB %): 0.50%
[4]; 2000 ng/mL
  Non-specific binding (NSB %): −1.97%
[4]
  Concentration of mCBS, 200 ng/mL Post-filter: 194 ng/mL and 202 ng/mL
  Concentration of mCBS, 200 ng/mL Pre-filter: 209 ng/mL and 195 ng/mL
  Concentration of mCBS, 2000 ng/mL Post-filter: 2190 ng/mL and 2160 ng/mL
  Concentration of mCBS, 2000 ng/mL Pre-filter: 1970 ng/mL
[4]; mean
  Concentration of mCBS, 200 ng/mL Post-filter: 201 ng/mL
  Concentration of mCBS, 200 ng/mL Pre-filter: 202 ng/mL
  Concentration of mCBS, 2000 ng/mL Post-filter: 2070 ng/mL
  Concentration of mCBS, 2000 ng/mL Pre-filter: 2030 ng/mL
[5]; 1394-5575 mg/kg/day
  AUC5-96 h and Css versus dose: increased linearly with dose
[5]; 5 h to 96 h (or 168 h) infusion interval
  plasma concentration versus time: steady state concentrations of mCBS were maintained
[5]; [10]
  liver microscopic findings: accumulation of foamy Kupffer cells
  lymph node microscopic findings: accumulation of foam macrophages
[5]; animals treated with 2178 mg/kg/day (free base)
  liver microscopic findings: single cell necrosis
[5]; animals treated with 2178 and 5575 mg/kg/day
  liver microscopic findings: focal or multiple focal necrosis
[5]; animals treated with ≤1394 mg/kg/day (so in the source), free base
  spleen microscopic findings: accumulation of foamy macrophages associated with increased apoptotic cells in the red pulp
[5]; animals treated with ≤2178 mg/kg/day (so in the source), free base
  kidney microscopic findings: proximal tubular vacuolation/rarefaction
[5]; both sexes at 5575 mg/kg/day
  urea, total protein and albumin: increase in urea and decreases in total protein and albumin
[5]; both sexes at doses ≤3484 mg/kg/day (so in the source)
  white blood cell lines: Increases in white blood cell lines
[5]; both sexes, 5575 mg/kg/day (free base)
  body weight gain and food consumption: Decreases in body weight gain
[5]; free base, corrected for potency and salt content, continuous IV infusion 7 days
  No Observable Adverse Effect Level (NOAEL): 1394 mg/kg/day
[5]; males at 5575 mg/kg/day
  red blood cell parameters and reticulocytes: decreases in red blood cell counts, hemoglobin, hematocrit, mean corpuscular volume and mean corpuscular hemoglobin concentration as well as increases in the reticulocytes
[5]; males at doses 2178 mg/kg/day, females at doses ≤3484 mg/kg/day (so in the source)
  activated partial thromboplastin time: Increases in activated partial thromboplastin time
[5]; males dosed at 5575 mg/kg/day
  Liver enzymes (ALT, AST), cholesterol and triglycerides: increased
[6]; 2788 mg/kg/day
  steady-state plasma concentration (Css) at the highest dose level: higher than 300 μg/mL
[6]; continuous (24 hours/day) IV infusion for 48 hours, free base corrected dose
  maximum tolerated dose (MTD): 2788 mg/kg/day
[6]; stepwise administration up to 2788 mg/kg/day
  dose-limiting toxicity (adverse clinical sign): No dose-limiting toxicity
[7]; 0-200 μg/mL added prior to 400 μg/mL histones
  inhibition of histone-induced RBC aggregation: inhibit histone-induced RBC aggregation in a dose dependent manner
[7]; histones 400 μg/mL 55 min, then mCBS 5 min
  reversal of histone-induced RBC aggregation: near complete inhibition
[7]; mCBS 200 μg/mL, histones 400 μg/mL 60 min
  prevention of histone-induced RBC aggregation: prevented
